In patent EP3748362A1, “IN VITRO METHOD FOR DETECTING RENAL DISEASE” (Fundacion Instituto De Investigacion Sanitaria Fundacion …, priority 2019, dated 2020):

Columns and labels:
CIAP1-TRAF3 complexes = assay: TRAF3 immunoprecipitation (ubiquitin-Lys-48, CIAP1) in PBMCs from ESRD patients; type: in vivo, human
Experimental: (§1) Intracellular protein and mRNA levels were measured in PBMCs from ESRD patients on hemodialysis. Inclusion criteria were as follows: age >45 years; male sex; informed consent; and absence of active inflammatory, infectious, or malignant diseases at the initiation or during the study. This study was approved by the IIS-Fundación Jiménez Diaz Ethics Committee. Patients were enrolled after providing written informed consent. PBMCs were separated from whole blood samples (30 ml into EDTA tubes) by a density gradient centrifugation method using Ficoll density gradient centrifugation. In total, 50x10^6 of PBMCs were obtained from 30 ml of whole blood and 6x10^6 PBMCs were used to isolate protein, RNA and nuclear/cytosolic protein levels using the NE-PER Reagent (Pierce) following the manufacturer's instructions.
Cells growing in tissue culture dish plates, were lysed in 300-500 µl Triton-NP-40 lysis buffer [50 mmol/L Tris-HCl pH 8, 150 mmol/L NaCl, 1 mmol/L phenylmethylsulphonylfluoride, 1% NP-40/IGEPAL, and a phosphatase-inhibitor cocktail (Set II, Calbiochem)], scraped off the dish and incubated 1 hour to 4°C with shaking. Cell lysates were precleared by incubating with 10 µl protein A-agarose bead slurries (0.5 mL agarose/2 mL phosphate-buffered saline) for 30 min at 4°C, and then centrifuged three times for 5 minutes at 2500 rpm, to wash supernatants. […]

[1] = tested on: proinflammatory gene expression; assay: Proinflammatory gene expression (real time PCR) in PBMCs from ESRD patients; type: in vivo, human; details: ESRD patients treated with paricalcitol vs untreated ESRD hemodialysis patients
Experimental: as §1
Total RNA was isolated from cells and mouse kidney samples with Trizol (Invitrogen). The cDNA was synthesized using the High-Capacity cDNA Archive Kit (Applied Biosystems) using 2 µg total RNA primed with random hexamer primers. […] The mRNA copy numbers were calculated for each sample by the instrument software using Ct value. Results are expressed in copy numbers, calculated relative to unstimulated cells or control mice, after normalization against 18S.

TRAF3 = assay: Renal TRAF3 (western blot), folic acid-induced renal injury in mice; type: in vivo; details: folic acid 300 mg/kg model; paricalcitol 25 µg/kg/day i.p.
Experimental: All animal procedures were performed according to the guidelines of animal research in the European Community and with prior approval by the Ethics Committee of the Health Research of the IIS-Fundacion Jiménez Díaz. For in vivo studies, mice received a daily intraperitoneal injection of the VDRA Paricalcitol starting 48 hours prior to induction of kidney damage.
At the time of sacrifice, animals were anesthetized with 5 mg/kg xylazine (Rompun, Bayer AG) and 35 mg/kg ketamine (Ketolar, Pfizer) and the kidneys perfused in situ with cold saline before removal. Then, kidney portions were fixed in formalin buffer for immunohistochemistry studies or immediately frozen in liquid nitrogen for gene and protein studies.
Folic acid nephropathy is a classical model of kidney tubulointerstitial injury and inflammation that has been reported in humans. Mice received a single intraperitoneal injection of folic acid (Sigma) 300 mg/kg in 0.3 mol/l sodium bicarbonate or vehicle, and were sacrificed 48 hours later. […]
For western blot, cell (25 µg/lane) and kidney (100-150 µg/lane) protein extracts were separated on 6%-12% polyacrylamide-SDS gels under reducing conditions. […] Autoradiographs were scanned using the Gel Doc™ EZ imager and analyzed with the Image Lab 3.0 software (BioRad).

RelB or p52/NF-κB2 = assay: p52 and RelB DNA binding activity in PBMCs from ESRD patients on hemodialysis; type: in vivo, human; details: PBMCs from paricalcitol-treated ESRD patients; RelB or p52 DNA binding activities
Experimental: as §1
Nuclear and cytoplasmic fractions were separated from renal tissues using the NE-PER Reagent (Pierce) following the manufacturer's instructions. In renal nuclear extracts, NF-κB2 and RelB DNA binding activity was measured by its binding to an oligonucleotide containing the NF-κB consensus site using a TransAM NF-κB Family kit (Active Motif) with an antibody that only recognizes active NF-κB2 p52 and RelB.

How did the “TRAF3 ubiquitination and CIAP1-TRAF3 interaction” value (CIAP1-TRAF3 complexes; PBMCs of paricalcitol-treated ESRD patients, TRAF3 immunoprecipitation) turn out when C[C@H](/C=C/[C@H](C)C(C)(C)O)[C@H]1CC[C@H]2/C(=C/C=C3C[C@@H](O)C[C@H](O)C3)CCC[C@]12C [paricalcitol] was run?
Its value is “significantly lowering to values in the range of healthy controls”.

What about the CIAP-1 levels (CIAP1-TRAF3 complexes; whole protein extracts of PBMCs, paricalcitol-treated ESRD patients) of the same molecule?
Its CIAP-1 levels is “close to control values”.

What about the “proinflammatory gene expression levels” value [1] of the same molecule?
The value was “significantly lower”.

What about the “renal TRAF3 protein levels” value (TRAF3) of the same molecule?
Its value is “restored renal TRAF3 protein levels to values of control mice”.

What about the NF-κB2 pathway activation (RelB or p52/NF-κB2) of the same molecule?
The NF-κB2 pathway activation was “inhibited”.
